From patent US20180256623A1, “COMPOSITIONS AND METHOD FOR REGULATING ADIPOSE TISSUE LIPOLYSIS, INSULIN-RESISTANCE, AND HYPERGLYCEMIA” (University of Virginia Patent Foundation, priority 2015, published 2018)

What was measured:
STZ mice = test: Hemorrhage and resuscitation protocol with Pseudomonas aeruginosa respiratory infection in STZ mice; format: in vivo; details: in response to Atglistatin treatment
Description: How preventing hyperglycemia can aid recovery and improve survival will be investigated. STZ mice will be subjected to hemorrhage protocol described above, but then resuscitated by fluid replacement to perform a survival surgery. The metabolic status will be followed for up to three days and indices of wound repair and susceptibility to postoperative pneumonia was monitored (FIG. 1). Control and T1DM mice, treated with Atglistatin to inhibit lipolysis or vehicle, will be subjected to the hemorrhage and resuscitation protocol. The ability of Atglistatin to improve survival under baseline conditions, as well as improve wound healing and recovery, will be determined. In addition, it will be determined whether attenuating postoperative hyperglycemia via Atglistatin administration improves survival from postoperative pseudomonal pneumonia and/or improve indices of pneumonia. […] Animals will be monitored for several hours after surgery taking hourly blood glucose measurements. […] Lung injury will be assessed by albumin ELISA in the bronchoalveolar lavage (BAL) fluid. Bacterial counts will be performed in the lung and blood, flow cytometric analysis of BAL cells will be done to assess for leukocyte infiltration and function, and BAL fluid as well as serum will be analyzed for inflammatory cytokine release. […]

monoglyceride lipase = target: T1, monoglyceride lipase (Homo sapiens, UniProt Q99685); details: cited from earlier work
T1 sequence (Q99685 1-303): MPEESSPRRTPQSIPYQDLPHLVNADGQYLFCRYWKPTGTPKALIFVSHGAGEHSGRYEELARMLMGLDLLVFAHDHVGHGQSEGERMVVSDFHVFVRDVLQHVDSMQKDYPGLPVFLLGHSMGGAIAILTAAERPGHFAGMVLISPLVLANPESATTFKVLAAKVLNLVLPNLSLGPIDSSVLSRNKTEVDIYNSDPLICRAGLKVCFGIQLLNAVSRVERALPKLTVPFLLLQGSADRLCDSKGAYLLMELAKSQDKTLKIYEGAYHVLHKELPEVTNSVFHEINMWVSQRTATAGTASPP

PNPLA6 = target: T2, PNPLA6 (Homo sapiens, UniProt Q8IY17); details: cited from earlier work
T2 sequence (Q8IY17 1-1375): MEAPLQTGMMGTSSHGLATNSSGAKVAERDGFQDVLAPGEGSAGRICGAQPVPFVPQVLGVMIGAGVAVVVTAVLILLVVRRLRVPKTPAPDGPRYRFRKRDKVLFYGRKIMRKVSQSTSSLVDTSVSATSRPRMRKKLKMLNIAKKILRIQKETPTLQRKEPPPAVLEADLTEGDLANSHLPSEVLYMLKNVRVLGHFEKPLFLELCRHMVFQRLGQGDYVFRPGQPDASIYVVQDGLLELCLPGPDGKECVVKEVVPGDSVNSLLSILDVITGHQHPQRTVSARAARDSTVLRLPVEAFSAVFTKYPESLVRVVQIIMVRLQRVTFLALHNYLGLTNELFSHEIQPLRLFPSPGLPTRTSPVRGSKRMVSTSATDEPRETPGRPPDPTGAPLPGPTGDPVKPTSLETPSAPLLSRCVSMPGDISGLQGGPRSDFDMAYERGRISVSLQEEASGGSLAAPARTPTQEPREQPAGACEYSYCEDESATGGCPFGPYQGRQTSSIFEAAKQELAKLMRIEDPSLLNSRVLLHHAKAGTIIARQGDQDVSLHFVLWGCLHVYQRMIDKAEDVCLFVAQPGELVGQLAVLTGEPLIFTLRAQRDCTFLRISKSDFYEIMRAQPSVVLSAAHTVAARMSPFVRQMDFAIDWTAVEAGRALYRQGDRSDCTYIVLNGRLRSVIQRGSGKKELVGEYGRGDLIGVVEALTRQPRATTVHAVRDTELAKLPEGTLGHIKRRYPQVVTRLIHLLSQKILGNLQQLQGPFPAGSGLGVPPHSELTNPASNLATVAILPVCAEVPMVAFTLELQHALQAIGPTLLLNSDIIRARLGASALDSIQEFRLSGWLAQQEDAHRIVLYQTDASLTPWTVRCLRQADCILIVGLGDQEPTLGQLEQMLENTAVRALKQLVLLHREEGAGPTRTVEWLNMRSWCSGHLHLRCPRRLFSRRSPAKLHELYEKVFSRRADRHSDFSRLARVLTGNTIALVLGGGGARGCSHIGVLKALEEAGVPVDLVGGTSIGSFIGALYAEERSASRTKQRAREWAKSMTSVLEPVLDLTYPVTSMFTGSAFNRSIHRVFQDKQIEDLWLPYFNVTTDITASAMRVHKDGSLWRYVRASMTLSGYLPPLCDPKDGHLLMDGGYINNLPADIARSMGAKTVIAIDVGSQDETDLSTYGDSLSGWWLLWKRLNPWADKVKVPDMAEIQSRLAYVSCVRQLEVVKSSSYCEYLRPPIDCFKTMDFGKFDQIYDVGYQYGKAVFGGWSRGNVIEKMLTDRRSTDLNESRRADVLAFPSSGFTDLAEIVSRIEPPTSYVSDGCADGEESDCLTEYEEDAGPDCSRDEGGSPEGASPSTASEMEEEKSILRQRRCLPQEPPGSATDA

CN(C)C(=O)Nc1cccc(-c2ccc(N(C)C)cc2)c1 [Atglistatin, N′-[4′-(dimethylamino) [1,1′-biphenyl]-3-yl]-N,N-dimethyl-urea]
immune cell function (STZ mice): restored to levels comparable with normoglycemic mice
inhibition of monoglyceride lipase (monoglyceride lipase): does not inhibit
inhibition of PNPLA6 (PNPLA6): does not inhibit
